Tested on: 817829-284-R-J1-PDC spheroids with HUVEC/MSC, viability
Experiment: Anticancer human tumor 817829-284-R-J1-PDC patient-derived colon adenocarcinoma cell line growth inhibition [TAK]
Conditions: for IC50: curve of first compound; for viability, T/C: stronger effect = lower value
In short: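 Spheroids of 60% malignant cells, 25% HUVEC and 15% hMSC were exposed to targeted agents combined with TAK-243 or ipatasertib. Concentrations started at or near clinical Cmax (10 microM if unknown) and descended in half-log steps.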

[1] = second compound 0.3 µM, first compound 0.0316 µM
[2] = second compound 0.3 µM, first compound 0.1 µM
[3] = second compound 0.3 µM, first compound 0.316 µM
[4] = second compound 0.3 µM, first compound 1 µM
[5] = second compound 0.949 µM, first compound 0.0316 µM
[6] = second compound 0.949 µM, first compound 0.1 µM
[7] = second compound 0.949 µM, first compound 0.316 µM
[8] = second compound 0.949 µM, first compound 1 µM
[9] = second compound 3 µM, first compound 0.0316 µM
[10] = second compound 3 µM, first compound 0.1 µM
[11] = second compound 3 µM, first compound 0.316 µM
[12] = second compound 3 µM, first compound 1 µM
[13] = second compound 9.49 µM, first compound 0.0316 µM
[14] = second compound 9.49 µM, first compound 0.1 µM
[15] = second compound 9.49 µM, first compound 0.316 µM
[16] = second compound 9.49 µM, first compound 1 µM
[17] = second compound 30 µM, first compound 0.0316 µM
[18] = second compound 30 µM, first compound 0.1 µM
[19] = second compound 30 µM, first compound 0.316 µM
[20] = second compound 30 µM, first compound 1 µM

| SMILES | IC50 (second compound 0.3 µM) [nM] | IC50 (second compound 0.949 µM) [nM] | IC50 (second compound 3 µM) [nM] | IC50 (second compound 9.49 µM) [nM] | IC50 (second compound 30 µM) [nM] | viability, T/C [1] [%] | viability, T/C [2] [%] | viability, T/C [3] [%] | viability, T/C [4] [%] | viability, T/C [5] [%] | viability, T/C [6] [%] | viability, T/C [7] [%] | viability, T/C [8] [%] | viability, T/C [9] [%] | viability, T/C [10] [%] | viability, T/C [11] [%] | viability, T/C [12] [%] | viability, T/C [13] [%] | viability, T/C [14] [%] | viability, T/C [15] [%] | other results |
| --- | --- | --- | --- | --- | --- | --- | --- | --- | --- | --- | --- | --- | --- | --- | --- | --- | --- | --- | --- | --- | --- |
| COc1c(OCCCN2CCOCC2)ccc2c3n(c(=NC(=O)c4cnc(N)nc4)nc12)CCN3 + CC(C)NCC(C(=O)N1CCN(c2ncnc3c2C(C)CC3O)CC1)c1ccc(Cl)cc1 | 8.27 | < 3.16 | < 3.16 | < 3.16 | < 3.16 | 23.3 | 8.89 | 2.93 | 2.83 | 8.85 | 4.57 | 1.95 | 1.97 | 3.03 | 2.24 | 1.67 | 1.29 | 2.03 | 2.04 | 1.13 | viability, T/C (second compound 0.3 µM, first compound 0.00316 µM): 64.6%; viability, T/C (second compound 0.3 µM, first compound 0.01 µM): 47%; viability, T/C (second compound 0.949 µM, first compound 0.00316 µM): 20.2%; viability, T/C (second compound 0.949 µM, first compound 0.01 µM): 10.4%; viability, T/C (second compound 3 µM, first compound 0.00316 µM): 7.34%; viability, T/C (second compound 3 µM, first compound 0.01 µM): 4.51%; viability, T/C (second compound 9.49 µM, first compound 0.00316 µM): 5.41%; viability, T/C (second compound 9.49 µM, first compound 0.01 µM): 3.12%; viability, T/C [16]: 1.28%; viability, T/C (second compound 30 µM, first compound 0.00316 µM): 3.31%; viability, T/C (second compound 30 µM, first compound 0.01 µM): 1.8%; viability, T/C [17]: 1.37%; viability, T/C [18]: 1.05%; viability, T/C [19]: 0.7%; viability, T/C [20]: 0.47% |
| Cc1nc(NC(=O)N2CCCC2C(N)=O)sc1-c1ccnc(C(C)(C)C(F)(F)F)c1 (stereo not given) + CC(C)NCC(C(=O)N1CCN(c2ncnc3c2C(C)CC3O)CC1)c1ccc(Cl)cc1 | 1190 | 76.2 | < 31.6 | < 31.6 | < 31.6 | 87.9 | 80.6 | 74.8 | 51.9 | 61.8 | 48.5 | 28.4 | 26.7 | 18.1 | 17 | 13.2 | 6.56 | 9.9 | 9.69 | 8.57 | viability, T/C (second compound 0.3 µM, first compound 3.16 µM): 37%; viability, T/C (second compound 0.3 µM, first compound 10 µM): 33.1%; viability, T/C (second compound 0.949 µM, first compound 3.16 µM): 14.4%; viability, T/C (second compound 0.949 µM, first compound 10 µM): 8.03%; viability, T/C (second compound 3 µM, first compound 3.16 µM): 6.29%; viability, T/C (second compound 3 µM, first compound 10 µM): 5.54%; viability, T/C [16]: 5.76%; viability, T/C (second compound 9.49 µM, first compound 3.16 µM): 3.41%; viability, T/C (second compound 9.49 µM, first compound 10 µM): 2.85%; viability, T/C [17]: 6.53%; viability, T/C [18]: 6.06%; viability, T/C [19]: 4.67%; viability, T/C [20]: 3.84%; viability, T/C (second compound 30 µM, first compound 3.16 µM): 2.64%; viability, T/C (second compound 30 µM, first compound 10 µM): 1.58% |

— PubChem BioAssay AID2060347 (Molecular Pharmacology Branch, DTP, NCI, 2025)
